ChEMBL document CHEMBL1687846, “Ex vivo activity of histone deacetylase inhibitors against multidrug-resistant clinical isolates of Plasmodium falciparum and P. vivax” (Antimicrob Agents Chemother, 2011)
pIC50: −log10 of the molar value.

Columns and labels:
[1] = test system: Plasmodium vivax; assay: Antimalarial activity against trophozoites stage of Plasmodium vivax assessed as parasites growth inhibition using giemsa staining after 24 to 56 hrs by microscopic analysis in presence of 20% human serum; type: functional, organism-based
[2] = test system: Plasmodium vivax; assay: Antimalarial activity against ring stage of Plasmodium vivax assessed as parasites growth inhibition using giemsa staining after 24 to 56 hrs by microscopic analysis in presence of 20% human serum; type: functional, organism-based
[3] = test system: Plasmodium vivax; assay: Antimalarial activity against Plasmodium vivax assessed as parasites growth inhibition using giemsa staining after 24 to 56 hrs by microscopic analysis in presence of 20% human serum; type: functional, organism-based
[4] = test system: Plasmodium falciparum; assay: Antimalarial activity against Plasmodium falciparum assessed as parasites growth inhibition using giemsa staining after 24 to 56 hrs by microscopic analysis in presence of 10% human serum; type: functional, organism-based
[5] = test system: Plasmodium falciparum; assay: Antimalarial activity against chloroquine-sensitive Plasmodium falciparum 3D7 assessed as inhibition of [3H]hypoxanthine incorporation; type: functional, organism-based
[6] = test system: Plasmodium falciparum; assay: microbe, parasite or virus in culture; conditions: K1, 3 h
Description: Antimalarial activity against chloroquine-resistant Plasmodium falciparum K1 assessed as inhibition of [3H]hypoxanthine incorporation

[7] = test system: Plasmodium falciparum; assay: Antimalarial activity against trophozoites stage of Plasmodium falciparum assessed as parasites growth inhibition using giemsa staining after 24 to 56 hrs by microscopic analysis in presence of 10% human serum; type: functional, organism-based
[8] = test system: Plasmodium falciparum; assay: Antimalarial activity against ring stage of Plasmodium falciparum assessed as parasites growth inhibition using giemsa staining after 24 to 56 hrs by microscopic analysis in presence of 10% human serum; type: functional, organism-based

Row | Compound | pIC50 [1] | pIC50 [2] | pIC50 [3] | pIC50 [4] | pIC50 [5] | pIC50 [6] | pIC50 [7] | pIC50 [8]
1 | Clc1ccc2c(N3CCN(CCCN4CCN(c5ccnc6cc(Cl)ccc56)CC4)CC3)ccnc2c1 [PIPERAQUINE] | 7.80 | 7.81 | 7.88 | 7.97 | 8.52 | 7.96 | – | –
2 | C[C@H]1[C@H](OC(=O)CCC(=O)O)O[C@@H]2O[C@@]3(C)CC[C@H]4[C@H](C)CC[C@@H]1[C@@]24OO3 [ARTESUNATE] | 9.41 | 9.12 | 9.13 | 9.04 | 8.70 | 9.00 | 8.92 | 9.06
3 | O=C(/C=C/c1ccccc1)N[C@@H](CCCCCC(=O)NO)C(=O)Nc1cccc2cccnc12 | 6.36 | 6.26 | 6.30 | 6.27 | – | – | 6.28 | 6.31
4 | O=C(CCCCC[C@H](NC(=O)c1cc2ccccc2[nH]1)C(=O)Nc1cccc2cccnc12)NO | 6.67 | 6.49 | 6.56 | 6.58 | – | – | 6.33 | 6.62
5 | CCN(CC)Cc1cc(Nc2ccnc3cc(Cl)ccc23)ccc1O | 7.68 | – | 8.04 | 8.30 | 8.70 | – | 8.02 | –
6 | CCN(CC)CCCC(C)Nc1ccnc2cc(Cl)ccc12 (configuration not stated) [CHLOROQUINE] | 6.07 | – | 7.39 | – | – | – | – | –
7 | OC(c1cc(C(F)(F)F)nc2c(C(F)(F)F)cccc12)C1CCCCN1 (configuration not stated) [MEFLOQUINE] | 7.99 | 8.04 | 8.11 | 8.20 | – | – | – | –
